Results as given in ChEMBL document CHEMBL5226363, “Alkaloids and Coumarins with Adiponectin-Secretion-Promoting Activities from the Leaves of Orixa japonica” (J Nat Prod, 2023).
Calls of active or inactive are those of the source. The calls are words filed in the database; no cut-off is given here.

How the values were obtained:
Mesenchymal stem cells = assay: Cytotoxicity against human BMMSC cells assessed as reduction in cell viability at 10 uM incubated for 72 hrs by CCK8 assay; assay type: toxicity, cell-based
[1] = target: T1, Peroxisome proliferator-activated receptor gamma (Homo sapiens, UniProt P37231); assay: Agonist activity at PPARgamma in human BMMSC cells assessed as promotion of adiponectin secretion by measuring increase in adiponectin level in presence of IDX medium by ELISA; assay type: cell-based
T1 sequence (P37231 whole entry): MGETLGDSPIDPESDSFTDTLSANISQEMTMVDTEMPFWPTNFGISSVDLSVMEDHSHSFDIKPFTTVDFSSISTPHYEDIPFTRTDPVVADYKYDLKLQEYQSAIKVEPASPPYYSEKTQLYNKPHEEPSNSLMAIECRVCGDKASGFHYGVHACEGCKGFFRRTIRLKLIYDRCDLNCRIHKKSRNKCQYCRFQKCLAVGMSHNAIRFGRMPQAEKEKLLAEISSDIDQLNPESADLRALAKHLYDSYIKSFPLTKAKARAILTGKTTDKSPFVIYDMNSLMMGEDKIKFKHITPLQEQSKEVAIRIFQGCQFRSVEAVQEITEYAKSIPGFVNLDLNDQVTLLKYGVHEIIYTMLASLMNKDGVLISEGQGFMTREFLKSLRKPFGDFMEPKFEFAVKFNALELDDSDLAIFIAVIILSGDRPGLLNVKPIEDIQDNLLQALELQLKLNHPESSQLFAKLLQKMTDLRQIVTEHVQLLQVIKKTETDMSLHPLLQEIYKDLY

[2] = target: T1, Peroxisome proliferator-activated receptor gamma; assay: Displacement of fluormone pan-PPARgreen from GST-tagged human PPARgamma ligand binding domain by LanthaScreen TR-FRET competitive binding assay
[3] = target: T2, Peroxisome proliferator-activated receptor gamma (Homo sapiens) (UniProt P37231); assay: Partial agonist activity at GST-tagged PPAR-gamma ligand binding domain (unknown origin) assessed as inhibition of pioglitazone-induced recruitment of fluorescein-labeled PRIP/RAP250 coactivator peptide at 10 uM in presence of pioglitazone by LanthaScreen TR-FRET Coactivator assay; conditions: filed as partial agonist
T2 sequence (whole entry): T1 sequence (P37231 whole entry)

[4] = target: T1, Peroxisome proliferator-activated receptor gamma; assay: Partial agonist activity at GST-tagged PPAR-gamma ligand binding domain (unknown origin) assessed as recruitment of fluorescein-labeled PRIP/RAP250 coactivator peptide by LanthaScreen TR-FRET Coactivator assay
[5] = target: T2, Peroxisome proliferator-activated receptor gamma (Homo sapiens); assay: Partial agonist activity at PPARgamma in human BMMSC cells assessed as increase in size and number of intracellular lipid droplets during adipocyte differentiation in presence of IDX medium at 10 uM by Oil Red O/hematoxylin staining based analysis; assay type: cell-based; conditions: filed as partial agonist
[6] = target: T3, Oxysterols receptor LXR-beta (Homo sapiens) (UniProt P55055); assay: Agonist activity at GST-tagged LXR-beta ligand binding domain (unknown origin) at 10 uM LanthaScreen TR-FRET Coactivator assay
T3 sequence (whole entry): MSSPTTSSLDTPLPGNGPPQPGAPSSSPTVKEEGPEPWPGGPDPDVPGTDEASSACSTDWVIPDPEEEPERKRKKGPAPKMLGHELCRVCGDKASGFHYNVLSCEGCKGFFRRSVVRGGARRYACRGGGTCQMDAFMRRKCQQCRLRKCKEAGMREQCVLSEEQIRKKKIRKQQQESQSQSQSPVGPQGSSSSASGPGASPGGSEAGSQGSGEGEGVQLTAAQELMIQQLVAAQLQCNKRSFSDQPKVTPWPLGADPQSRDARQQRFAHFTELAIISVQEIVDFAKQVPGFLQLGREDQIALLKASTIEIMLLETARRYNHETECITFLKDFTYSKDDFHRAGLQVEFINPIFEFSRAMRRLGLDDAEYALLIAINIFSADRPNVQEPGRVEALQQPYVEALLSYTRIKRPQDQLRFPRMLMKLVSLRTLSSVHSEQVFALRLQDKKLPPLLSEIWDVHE

[7] = target: T4, Peroxisome proliferator-activated receptor delta (Homo sapiens) (UniProt Q03181); assay: Displacement of fluormone pan-PPARgreen from GST-tagged human PPARdelta ligand binding domain at 10 uM by LanthaScreen TR-FRET competitive binding assay
T4 sequence (whole entry): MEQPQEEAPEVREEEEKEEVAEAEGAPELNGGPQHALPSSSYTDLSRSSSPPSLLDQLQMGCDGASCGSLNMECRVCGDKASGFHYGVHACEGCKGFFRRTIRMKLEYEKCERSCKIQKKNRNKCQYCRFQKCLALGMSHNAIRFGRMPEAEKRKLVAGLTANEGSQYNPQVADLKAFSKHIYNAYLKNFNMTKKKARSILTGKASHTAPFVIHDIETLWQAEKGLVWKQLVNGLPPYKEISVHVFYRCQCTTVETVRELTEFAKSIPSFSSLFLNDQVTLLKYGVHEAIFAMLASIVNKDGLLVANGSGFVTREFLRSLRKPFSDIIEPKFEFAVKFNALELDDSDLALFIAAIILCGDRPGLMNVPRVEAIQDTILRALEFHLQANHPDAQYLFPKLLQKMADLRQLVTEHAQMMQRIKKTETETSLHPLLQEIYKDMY

[8] = target: T1, Peroxisome proliferator-activated receptor gamma; assay: Partial agonist activity at GST-tagged PPAR-gamma ligand binding domain (unknown origin) assessed as recruitment of fluorescein-labeled SRC3 coactivator peptide by LanthaScreen TR-FRET Coactivator assay
[9] = target: T1, Peroxisome proliferator-activated receptor gamma; assay: Partial agonist activity at GST-tagged PPAR-gamma ligand binding domain (unknown origin) assessed as recruitment of fluorescein-labeled SRC1 coactivator peptide by LanthaScreen TR-FRET Coactivator assay
[10] = target: T1, Peroxisome proliferator-activated receptor gamma; assay: Partial agonist activity at PPARgamma in human BMMSC cells assessed as promotion of adiponectin secretion by measuring increase in adiponectin level in presence of IDX medium by ELISA; assay type: cell-based
[11] = target: T2, Peroxisome proliferator-activated receptor gamma (Homo sapiens); assay: Partial agonist activity at GST-tagged PPAR-gamma ligand binding domain (unknown origin) assessed as recruitment of fluorescein-labeled PRIP/RAP250 coactivator peptide at 10 uM by LanthaScreen TR-FRET Coactivator assay; conditions: filed as partial agonist
[12] = target: T5, Bile acid receptor (Homo sapiens) (UniProt Q96RI1); assay: Agonist activity at GST-tagged FXR ligand binding domain (unknown origin) at 10 uM LanthaScreen TR-FRET Coactivator assay
T5 sequence (whole entry): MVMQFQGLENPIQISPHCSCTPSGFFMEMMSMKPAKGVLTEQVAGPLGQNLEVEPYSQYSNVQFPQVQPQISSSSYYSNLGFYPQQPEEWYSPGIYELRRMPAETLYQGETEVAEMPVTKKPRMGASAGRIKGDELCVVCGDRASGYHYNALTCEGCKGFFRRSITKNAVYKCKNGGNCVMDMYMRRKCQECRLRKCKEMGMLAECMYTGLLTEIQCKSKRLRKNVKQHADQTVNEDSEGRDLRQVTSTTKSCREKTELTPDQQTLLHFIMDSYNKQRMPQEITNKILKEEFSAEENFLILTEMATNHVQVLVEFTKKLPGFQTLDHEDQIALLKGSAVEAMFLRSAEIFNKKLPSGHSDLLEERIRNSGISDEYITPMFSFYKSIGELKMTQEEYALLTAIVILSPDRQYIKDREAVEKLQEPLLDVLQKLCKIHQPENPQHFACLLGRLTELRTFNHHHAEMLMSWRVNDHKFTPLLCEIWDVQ

[13] = target: T6, Peroxisome proliferator-activated receptor alpha (Homo sapiens) (UniProt Q07869); assay: Displacement of fluormone pan-PPARgreen from GST-tagged human PPARalpha ligand binding domain at 10 uM by LanthaScreen TR-FRET competitive binding assay
T6 sequence (whole entry): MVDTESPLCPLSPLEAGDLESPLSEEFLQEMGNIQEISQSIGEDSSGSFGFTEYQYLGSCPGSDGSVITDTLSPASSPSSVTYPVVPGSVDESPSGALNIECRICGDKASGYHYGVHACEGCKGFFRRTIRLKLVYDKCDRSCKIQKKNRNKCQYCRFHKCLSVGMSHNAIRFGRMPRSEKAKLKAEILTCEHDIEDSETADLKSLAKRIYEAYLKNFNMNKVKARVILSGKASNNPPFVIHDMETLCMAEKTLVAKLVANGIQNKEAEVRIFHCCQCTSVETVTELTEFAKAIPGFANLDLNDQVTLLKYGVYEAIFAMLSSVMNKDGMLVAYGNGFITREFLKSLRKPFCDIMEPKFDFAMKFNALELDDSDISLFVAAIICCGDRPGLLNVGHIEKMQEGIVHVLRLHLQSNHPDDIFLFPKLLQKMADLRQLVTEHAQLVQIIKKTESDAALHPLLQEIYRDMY

| Compound | Activity (Mesenchymal stem cells) | other results |
| --- | --- | --- |
| COC(C)(C)/C=C/C/C(C)=C/COc1ccc2ccc(=O)oc2c1 | Non-Toxic | – |
| COc1c2c(cc3ccc(=O)oc13)C[C@@H](C(C)(C)OC(C)=O)O2 | Non-Toxic | – |
| COc1c(CC(=O)C(C)C)c(=O)n(C)c2ccccc12 | Non-Toxic | – |
| COc1c(CC=C(C)C)c(=O)[nH]c2c(OC)c(O)ccc12 | Non-Toxic | – |
| COc1c(CC(=O)C(C)C)c(=O)[nH]c2c(OC)cccc12 | Non-Toxic | – |
| COc1c2ccoc2c(OC)c2oc(=O)ccc12 [ISOPIMPINELLIN] | Non-Toxic | – |
| C=C[C@]1(C)C[C@H](OC(C)=O)[C@@H](C(C)(C)O)C[C@H]1C(=C)C | Non-Toxic | – |
| Cn1c(-c2ccccc2)cc(=O)c2c(O)cccc21 | Non-Toxic | – |
| COc1ccc(-c2cc(=O)c3c(O)c(OC)ccc3n2C)cc1 | Non-Toxic | – |
| COc1c2occc2cc2ccc(=O)oc12 [METHOXSALEN] | Non-Toxic | – |
| COc1c(CC=C(C)C)c(=O)n(C)c2c(OC)cccc12 | Non-Toxic | – |
| COc1c(CC=C(C)C)c(=O)n(C)c2ccccc12 | Non-Toxic | – |
| COc1c(CC(=O)C(C)C)c(=O)n(C)c2c(OC)c(O)ccc12 | Non-Toxic | – |
| C=C(C)C(O)CC/C(C)=C/COc1ccc2ccc(=O)oc2c1 (configuration not stated) | Non-Toxic | – |
| COc1ccc(Cl)cc1C(=O)NCCc1ccc(S(=O)(=O)NC(=O)NC2CCCCC2)cc1 [GLYBURIDE] | – | EC50 [1]: 2.3 µM |
| COc1c2ccoc2cc2oc(=O)ccc12 [BERGAPTEN] | Non-Toxic | – |
| COc1cc2ccc(=O)oc2cc1OC/C=C(\C)CCC=C(C)C | Non-Toxic | Ki [2]: 10.7 µM; Activity [3]: Active; EC50 [4]: 17.3 µM; Activity [5]: Active; Activity [6]: inactive; Activity [7]: inactive; EC50 [8]: > 30 µM; EC50 [9]: > 30 µM; EC50 [10]: 25.8 µM; Activity [11]: Active; Activity [12]: inactive; Activity [13]: inactive |
| C=C(C)C(O)COc1c2occc2cc2ccc(=O)oc12 (configuration not stated) | Non-Toxic | – |
| CC(C)=CCOc1c2occc2cc2ccc(=O)oc12 [PENTOSALEN] | Non-Toxic | – |
| CC(C)=CCC/C(C)=C/COc1ccc2ccc(=O)oc2c1 | Non-Toxic | EC50 [1]: > 30 µM |
| COc1cc2ccc(=O)oc2c(OC)c1OC/C=C(\C)CCC=C(C)C [ALTISSIMACOUMARIN D] | Non-Toxic | EC50 [1]: > 30 µM |
| C=C[C@]1(C)C[C@H](O)[C@@H](C(C)(C)O)C[C@H]1C(=C)C | Non-Toxic | – |
| C=C(C)C(CC/C(C)=C/COc1c(OC)cc2ccc(=O)oc2c1OC)OO (configuration not stated) | Non-Toxic | – |
| COc1ccc(-c2cc(=O)c3c(O)cccc3n2C)cc1 | Non-Toxic | – |
| COc1cc2ccc(=O)oc2c(OC)c1OC/C=C(\C)C/C=C/C(C)(C)OO | Non-Toxic | – |
| COc1c(CC(=O)C(C)C)c(=O)n(C)c2c(OC)cccc12 [ORIXALONE A] | Non-Toxic | – |
| CC(=O)[C@H]1CC[C@@H]2[C@@H]1[C@H](C(C)C)CC[C@]2(C)O | Non-Toxic | – |
| O=c1ccc2cc3ccoc3cc2o1 [PSORALEN] | Non-Toxic | – |
